# Assays:
# MCF7 = assay: Cytotoxicity against human MCF7 cells assessed as cell growth inhibition; type: functional, cell-based
# HeLa = assay: Cytotoxicity against human HeLa cells assessed as cell growth inhibition; type: functional, cell-based
# Influenza A virus = assay: Antiviral activity against Influenza A virus H1N1; type: functional, organism-based
# Candida albicans = assay: Antifungal activity against Candida albicans ATCC 10231 assessed as fungal growth inhibition by agar dilution method; type: functional
# Staphylococcus aureus [1] = assay: Antibacterial activity against Staphylococcus aureus S014 assessed as bacterial cell growth inhibition by agar dilution method; type: functional
# Bacillus subtilis = assay: Antibacterial activity against Bacillus subtilis S028 assessed as bacterial cell growth inhibition by agar dilution method; type: functional
# Escherichia coli = assay: Antibacterial activity against Escherichia coli S002 assessed as bacterial cell growth inhibition by agar dilution method; type: functional
# HCT-116 = assay: Cytotoxicity against human HCT-116 cells assessed as cell growth inhibition by MTT assay; type: functional, cell-based
# Staphylococcus aureus [2] = assay: Antibacterial activity against methicillin-resistant Staphylococcus aureus assessed as bacterial cell growth inhibition by agar dilution method; type: functional
compound,measurement,setting,value
CC[C@@H]1[C@@H](C)O[C@@](O)([C@@H](C)[C@H](O)[C@H](C)[C@H]2OC(=O)/C=C/C=C/[C@H](C)[C@@H]([C@@H](C)[C@@H](O)[C@H](C)[C@@]3(O)C[C@@H](O[C@H]4C[C@H](O)[C@H](O)[C@H](C)O4)[C@H](CC)[C@@H](C)O3)OC(=O)/C(C)=C/C=C/[C@@H]2C)C[C@H]1O[C@H]1C[C@H](O)[C@H](O)[C@H](C)O1,IC50,MCF7,190 nM
same,IC50,HeLa,190 nM
CC(=O)C[C@H](c1nc2ccccc2c(=O)n1[C@@H]1C[C@]2(OC1=O)c1ccccc1N1C(=O)C(C)(C)N(O)[C@H]12)C(C)C,IC50,Influenza A virus,82000 nM
CC(=O)C[C@H](c1nc2ccccc2c(=O)n1[C@@H]1C[C@]2(OC1=O)c1ccccc1N1C(=O)C(C)(C)N[C@H]12)C(C)C,IC50,Influenza A virus,82000 nM
C/N=C(\NC)NCCC/C=C/CCC[C@H](C)[C@@H]1OC(=O)/C(C)=C/C=C/[C@H](C)[C@@H](O)C[C@H](O)[C@@H](C)[C@H](O)CC[C@H](C)[C@@H](O)C[C@@]2(O)O[C@@H](C[C@@H](O)C[C@H](OC(=O)CC(=O)O)C[C@@H](O)C[C@H](O)/C(C)=C/C=C/[C@H]1C)C[C@@H](O)[C@@H]2O,MIC,Candida albicans,1.65 µg/mL
same,MIC,Staphylococcus aureus [1],0.39 µg/mL
same,MIC,Bacillus subtilis,0.2 µg/mL
same,MIC,Escherichia coli,3.13 µg/mL
CCCC(CC)COC(=O)CC(=O)OC1CC(O)CC2CC(O)C(O)C(O)(CC(O)C(C)CCC(O)C(C)C(O)CC(O)C(C)/C=C/C=C(\C)C(=O)OC(C(C)CCC/C=C/CCCN/C(N)=N\C)C(C)/C=C/C=C(\C)C(O)CC(O)C1)O2 (stereo not given),MIC,Candida albicans,1.65 µg/mL
same,MIC,Staphylococcus aureus [1],0.39 µg/mL
same,MIC,Bacillus subtilis,0.2 µg/mL
same,MIC,Escherichia coli,3.13 µg/mL
CC[C@@H]1[C@@H](C)O[C@@](O)([C@@H](C)[C@H](O)[C@H](C)[C@H]2OC(=O)/C=C/C=C/[C@H](C)[C@@H]([C@@H](C)[C@@H](O)[C@@H](C)[C@@]3(O)C[C@@H](O[C@H]4C[C@H](O)[C@H](O)[C@H](C)O4)[C@H](CC)[C@@H](C)O3)OC(=O)/C=C/C=C/[C@@H]2C)C[C@H]1OC,IC50,MCF7,190 nM
same,IC50,HeLa,190 nM
CC(C)=C1NC(=O)[C@@H](C[C@]2(O)c3ccccc3N3C(=O)[C@H](C)N[C@H]32)n2c1nc1ccccc1c2=O,IC50,Influenza A virus,82000 nM
COC(=O)Nc1ccc(C)c(NC(=O)N(C)[C@@H]2O[C@H]3C[C@@](C)([C@@H]2OC)n2c4ccccc4c4c5c(c6c7ccccc7n3c6c42)C(=O)NC5)c1,IC50,HCT-116,370 nM
C/N=C(/N)NCCC/C=C/CCC[C@H](C)[C@@H]1OC(=O)/C(C)=C/C=C/[C@H](C)[C@@H](O)C[C@H](O)[C@@H](C)[C@H](O)CC[C@H](C)[C@@H](O)C[C@@]2(O)O[C@@H](C[C@@H](OC(=O)CCCCCCCC(C)C)C[C@H](O)C[C@@H](O)C[C@H](O)/C(C)=C/C=C/[C@H]1C)C[C@@H](O)[C@@H]2O,MIC,Candida albicans,1.65 µg/mL
same,MIC,Staphylococcus aureus [1],0.39 µg/mL
same,MIC,Bacillus subtilis,0.2 µg/mL
same,MIC,Escherichia coli,3.13 µg/mL
C/C1=C\C=C\[C@H](C)[C@@H](O)C[C@H](O)[C@@H](C)[C@H](O)CC[C@H](C)[C@@H](O)C[C@@]2(O)O[C@@H](C[C@@H](OC(=O)CCCCC(C)C)C[C@H](O)C[C@@H](O)C[C@H](O)/C(C)=C/C=C/[C@@H](C)[C@H]([C@@H](C)CCC/C=C/CCCNC(=N)N)OC1=O)C[C@@H](O)[C@@H]2O,MIC,Candida albicans,1.65 µg/mL
same,MIC,Staphylococcus aureus [1],0.39 µg/mL
same,MIC,Bacillus subtilis,0.2 µg/mL
same,MIC,Escherichia coli,3.13 µg/mL
C/N=C(\NC)NCCC/C=C/CCCC(C)C1OC(=O)/C(C)=C/C=C/C(C)C(O)CC(O)C(C)C(O)CCC(C)C(O)CC2(O)OC(CC(OC(=O)CC(=O)O)CC(O)CC(O)CC(O)/C(C)=C/C=C/C1C)CC(O)C2O (stereo not given),IC50,HCT-116,1.81 µg/mL
same,MIC,Candida albicans,1.65 µg/mL
same,MBC,Staphylococcus aureus [2],8 µg/mL
same,MIC,Staphylococcus aureus [2],4 µg/mL
O=C1NC(=O)[C@H](Cc2c[nH]c3ccccc23)n2c1nc1ccccc1c2=O,IC50,Influenza A virus,82000 nM
CC[C@@H]1[C@@H](C)O[C@@](OC)([C@@H](C)[C@H](O)[C@H](C)[C@H]2OC(=O)/C=C/C=C/[C@H](C)[C@@H]([C@@H](C)[C@@H](O)[C@H](C)[C@@]3(OC)C[C@@H](O[C@H]4C[C@H](O)[C@H](O)[C@H](C)O4)[C@H](CC)[C@@H](C)O3)OC(=O)/C=C/C=C/[C@@H]2C)C[C@H]1O[C@H]1C[C@H](O)[C@H](O)[C@H](C)O1,IC50,MCF7,190 nM
same,IC50,HeLa,190 nM
C/N=C(\NC)NCCC/C=C/CCC[C@H](C)[C@@H]1OC(=O)/C(C)=C/C=C/[C@H](C)[C@@H](O)C[C@H](O)[C@@H](C)[C@H](O)CC[C@H](C)[C@@H](O)C[C@@]2(O)O[C@@H](C[C@@H](OC(=O)C(N)C(C)C)C[C@H](O)C[C@@H](O)C[C@H](O)/C(C)=C/C=C/[C@H]1C)C[C@@H](O)[C@@H]2O (stereo not given in full),MIC,Candida albicans,1.65 µg/mL
same,MIC,Staphylococcus aureus [1],0.39 µg/mL
same,MIC,Bacillus subtilis,0.2 µg/mL
same,MIC,Escherichia coli,3.13 µg/mL
C/N=C(/N)NCCC/C=C/CCC[C@H](C)[C@@H]1OC(=O)/C(C)=C/C=C/[C@H](C)[C@@H](O)C[C@H](O)[C@@H](C)[C@H](O)CC[C@H](C)[C@@H](O)C[C@@]2(O)O[C@@H](C[C@@H](OC(=O)CCCCC(C)C)C[C@H](O)C[C@@H](O)C[C@H](O)/C(C)=C/C=C/[C@H]1C)C[C@@H](O)[C@@H]2O,MIC,Candida albicans,1.65 µg/mL
same,MIC,Staphylococcus aureus [1],0.39 µg/mL
same,MIC,Bacillus subtilis,0.2 µg/mL
same,MIC,Escherichia coli,3.13 µg/mL
CC[C@@H]1[C@@H](C)O[C@@](O)([C@@H](C)[C@H](O)[C@H](C)[C@H]2OC(=O)/C=C/C=C/[C@H](C)[C@@H]([C@@H](C)[C@@H](O)[C@H](C)[C@@]3(O)C[C@@H](O[C@H]4C[C@H](O)[C@H](O)[C@H](C)O4)[C@H](CC)[C@@H](C)O3)OC(=O)/C=C/C=C/[C@@H]2C)C[C@H]1O[C@H]1C[C@H](O)[C@H](O)[C@H](C)O1,IC50,MCF7,190 nM
same,IC50,HeLa,190 nM
CN[C@@H]1O[C@H]2C[C@@](C)([C@@H]1OC)n1c3ccccc3c3c4c(c5c6ccccc6n2c5c31)C(=O)NC4,IC50,HCT-116,40 nM
C/N=C(/NC)NCCC/C=C/CCC[C@H](C)[C@@H]1OC(=O)/C(C)=C/C=C/[C@H](C)[C@@H](O)C[C@H](O)[C@@H](C)[C@H](O)CC[C@H](C)[C@@H](O)C[C@@]2(O)O[C@@H](C[C@@H](OC(=O)CCCCCCCCC(C)C)C[C@H](O)C[C@@H](O)C[C@H](O)/C(C)=C/C=C/[C@H]1C)C[C@@H](O)[C@@H]2O,MIC,Candida albicans,1.65 µg/mL
same,MIC,Staphylococcus aureus [1],0.39 µg/mL
same,MIC,Bacillus subtilis,0.2 µg/mL
same,MIC,Escherichia coli,3.13 µg/mL
CCCC(CC)COC(=O)CC(=O)OC1CC(O)CC(O)CC(O)/C(C)=C/C=C/C(C)C(C(C)CCC/C=C/CCCN/C(=N/C)NC)OC(=O)/C(C)=C/C=C/C(C)C(O)CC(O)C(C)C(O)CCC(C)C(O)CC2(O)OC(C1)CC(O)C2O (stereo not given),MIC,Candida albicans,1.65 µg/mL
CS[C@H]1NC(=O)[C@@](Cc2ccc(CCC=C(C)C)cc2)(SC)N(C)C1=O,IC50,HeLa,4200 nM
CCCC(CC)COC(=O)CC(=O)OC1CC(O)CC(O)CC(O)/C(C)=C/C=C/C(C)C(C(C)CCC/C=C/CCCN/C(N)=N/C)OC(=O)/C(C)=C/C=C/C(C)C(O)CC(O)C(C)C(O)CCC(C)C(O)CC2(O)OC(C1)CC(O)C2O (stereo not given),MIC,Candida albicans,1.65 µg/mL
C/N=C(\N)NCCC/C=C/CCCC(C)C1OC(=O)/C(C)=C/C=C/C(C)C(O)CC(O)C(C)C(O)CCC(C)C(O)CC2(O)OC(CC(OC(=O)CC(=O)O)CC(O)CC(O)CC(O)/C(C)=C/C=C/C1C)CC(O)C2O (stereo not given),IC50,HCT-116,1.81 µg/mL
same,MIC,Candida albicans,1.65 µg/mL
same,MBC,Staphylococcus aureus [2],8 µg/mL
same,MIC,Staphylococcus aureus [2],4 µg/mL
CC[C@@H]1[C@@H](C)O[C@@](OC)([C@@H](C)[C@H](O)[C@H](C)[C@H]2OC(=O)/C=C/C=C/[C@H](C)[C@@H]([C@@H](C)[C@@H](O)[C@H](C)[C@@]3(OC)C[C@@H](O[C@H]4C[C@H](O)[C@H](O)[C@H](C)O4)[C@H](CC)[C@@H](C)O3)OC(=O)/C(C)=C/C=C/[C@@H]2C)C[C@H]1O[C@H]1C[C@H](O)[C@H](O)[C@H](C)O1,IC50,MCF7,190 nM
same,IC50,HeLa,190 nM
CC(=O)C[C@H](c1nc2ccccc2c(=O)n1[C@@H]1C[C@]2(OC1=O)c1ccccc1N1C(=O)[C@H](C)N[C@H]12)C(C)C,IC50,Influenza A virus,82000 nM
CC[C@@H]1[C@@H](C)O[C@@](O)([C@@H](C)[C@H](O)[C@H](C)[C@H]2OC(=O)/C=C/C=C/[C@H](C)[C@@H]([C@@H](C)[C@@H](O)[C@H](C)[C@@]3(O)C[C@@H](O[C@H]4C[C@H](O)[C@H](O)[C@H](C)O4)[C@H](C)[C@@H](C)O3)OC(=O)/C=C/C=C/[C@@H]2C)C[C@H]1O[C@H]1C[C@H](O)[C@H](O)[C@H](C)O1,IC50,MCF7,190 nM
same,IC50,HeLa,190 nM
C/C1=C\C=C\C(C)C(O)CC(O)C(C)C(O)CCC(C)C(O)CC2(O)OC(CC(OC(=O)CC(=O)O)CC(O)CC(O)CC(O)/C(C)=C/C=C/C(C)C(C(C)CCC/C=C/CCCNC(=N)N)OC1=O)CC(O)C2O (stereo not given),IC50,HCT-116,1.81 µg/mL
same,MIC,Candida albicans,1.65 µg/mL
same,MBC,Staphylococcus aureus [2],8 µg/mL
same,MIC,Staphylococcus aureus [2],4 µg/mL
CC[C@@H]1[C@@H](C)O[C@@](OC)([C@@H](C)[C@H](O)[C@H](C)[C@H]2OC(=O)/C=C/C=C/[C@H](C)[C@@H]([C@@H](C)[C@@H](O)[C@H](C)[C@@]3(O)C[C@@H](O[C@H]4C[C@H](O)[C@H](O)[C@H](C)O4)[C@H](CC)[C@@H](C)O3)OC(=O)/C=C/C=C/[C@@H]2C)C[C@H]1O[C@H]1C[C@H](O)[C@H](O)[C@H](C)O1,IC50,MCF7,190 nM
same,IC50,HeLa,190 nM
O=C1NC2c3nc4ccccc4c(=O)n3[C@H]1C[C@@]21c2ccccc2N2C(=O)[C@@H]3CCCN3[C@H]21,IC50,Influenza A virus,82000 nM

# From ChEMBL document CHEMBL5107956, “Natural products from mangrove sediments-derived microbes: Structural diversity, bioactivities, biosynthesis, and total synthesis” (Eur J Med Chem, 2022)
